Measurements as given in US20040254243A1 (priority 2001, published 2004).
Read-outs that look alike come from different tables or passages of the source.

Experiments:
[1] = pKa values from the literature
[2] = cited from earlier work

SMILES	pKa ([1]; acetonitrile/water (3/1) and methanol/water (3/1))	pKa ([2]; acetonitrile/water (3/1))	pKa ([2]; methanol/water (3/1))	pK, mean value ([1]; mean of pK1 and pK2)
CC(C(=O)O)c1cccc(C(=O)c2ccccc2)c1 (stereo not shown) [ketoprofen, 2-(3-benzoylphenyl)propionic acid]	~5.5	5.02	5.94	–
N=C(N)NCCC[C@H](N)C(=O)O [arginine]	–	–	–	about 5.6
